Measurements reported in patent US20070196490A1, “Method of enhancing needleless transdermal powered drug delivery” (priority 1999, published 2007).

Assays:
[1] = female, human, in vivo
Protocol: (§1) In order to evaluate the bioavailability of a peptide drug (calcitonin) administered via particle injection, with and without post administration patch occlusion (relative to subcutaneous injection), the following clinical study was carried out.
(§2) For subcutaneous injections, Miacalcic® calcitonin product was obtained from a commercial source and contained approximately 25 μg (100 IU) of salmon calcitonin (sCT) per ml. For particle injections, the calcitonin composition was formed from sCT at 8% w/w, PVP excipient at 2% w/w, in mannitol. The calcitonin composition was then lyophilized, compressed and then milled to produce particles suitable for use in a particle injection device. […] The 38-53 μm sieve fraction was obtained using a standard mesh screen.
(§3) All particle injections were carried out using a PowderJect® model ND1 needleless syringe fitted with a porous silencer (obtained from PowderJect Technologies, Inc., Fremont, Calif.). […] The devices were operated as described in the '796 patent, using a 60 bar gas source, in order to deliver the sCT particles.
(§4) Occlusive patches were produced by cutting Parafilm® discs which were held in-place by an adhesive dressing. In experimental groups receiving an occlusive dressing, the patch was placed on the skin covering the site of particle administration after sCT delivery and left in-place for the duration of the study (4 hours).
(§5) The overall approach involved measuring pharmacokinetic and pharmacodynamic response parameters following the sCT dose in 24 healthy female subjects. The trial was designed as a single center, open, parallel group trial.
(§6) Blood samples were collected via an indwelling catheter prior to and at 2, 5, 10, 20, 30, 45, 60, 90, 120, 180 and 240 minutes following administration of the calcitonin dose. sCT plasma concentrations were determined by ELISA (PPD Development, VA).

clinical = conditions: female, human, in vivo
Protocol: as §1, §2, §3, §4, §5, §6

In the case of `CC(C)C[C@H](NC(=O)[C@H](CCCCN)NC(=O)CNC(=O)[C@H](CC(C)C)NC(=O)[C@@H](NC(=O)[C@@H]1CSSC[C@H](N)C(=O)N[C@@H](CO)C(=O)N[C@@H](CC(N)=O)C(=O)N[C@@H](CC(C)C)C(=O)N[C@@H](CO)C(=O)N[C@@H]([C@@H](C)O)C(=O)N1)C(C)C)C(=O)N[C@@H](CO)C(=O)N[C@@H](CCC(N)=O)C(=O)N[C@@H](CCC(=O)O)C(=O)N[C@@H](CC(C)C)C(=O)N[C@@H](Cc1c[nH]cn1)C(=O)N[C@@H](CCCCN)C(=O)N[C@@H](CC(C)C)C(=O)N[C@@H](CCC(N)=O)C(=O)N[C@H](C(=O)N[C@@H](Cc1ccc(O)cc1)C(=O)N1CCC[C@H]1C(=O)N[C@@H](CCCNC(=N)N)C(=O)N[C@H](C(=O)N[C@@H](CC(N)=O)C(=O)N[C@H](C(=O)NCC(=O)N[C@@H](CO)C(=O)NCC(=O)N[C@H](C(=O)N1CCC[C@H]1C(N)=O)[C@@H](C)O)[C@@H](C)O)[C@@H](C)O)[C@@H](C)O` [sCT, salmon calcitonin], the “mean bioavailability (BA) relative to the SC injection” value [1] is reported as 5.1%, the Tmax (clinical; sc) is reported as 20 min and the Tmax (clinical; topical or ocular, 300 ug) is reported as 5 min.
